Data reported in patent publication US20220087961A1, “TREATMENT METHODS OF TRIPHENYL CALCILYTIC COMPOUNDS” (CALCILYTIX THERAPEUTICS, INC., priority 2020, published 2022).

Columns and labels:
[1] = tested on: healthy volunteers and postmenopausal women with osteoporosis; details: cited from earlier work
[2] = non-clinical data; cited from earlier work
[3] = cited from earlier work
[4] = cited from earlier work; remark: listed apart in the source
subjects with ADH1 = assay: Phase 2b open-label dose-ranging study, Period 1 / Cohort 1; type: in vivo, human
Text: A Phase 2b, open-label dose-ranging study is designed to evaluate the safety, tolerability, and efficacy of CLTX-305 to maintain normalized albumin-corrected blood calcium (cCa) in subjects with hypocalcemia due to ADH1. An overview scheme of the Phase 2b study is illustrated in FIG. 2.
Period 1: an inpatient stay that consists of 5 dosing days during which subjects will undergo a once-daily (QD) dose escalation for 3 days followed by 2 days of twice daily (BID) dosing at an individualized test dose of CLTX-305.
In Period 1, eligible Cohort 1 subjects are admitted to the NIH CC after completing screening tests. On days 1-3 of admission, Cohort 1 subjects will undergo single daily dosing and protocol-specified dose-escalation of CLTX-305 from the initial dose of 30 mg on Day 1, increasing to a maximum dose of 180 mg on Day 3. Based on the individualized responses to QD dose escalation an individualized dose of CLTX-305 will be chosen for BID administration on Days 4 and 5.
Days 1, 2 and 3 (QD Dose Escalations): Up to 8 subjects (minimum of 5) will undergo a single-dose, dose-escalation over the first 3 days of admission in Period 1. Morning doses will be administered on Days 1, 2 and 3, respectively, accompanied by frequent blood and urine sampling for 24-hours for PK/PD measures. CLTX-305 will be administered in the morning within 30 minutes prior to breakfast. If dose escalation is limited due to tolerability or hypercalcemia, then the investigator, in consultation with sponsor, may choose to interrupt the pre-specified dose escalation. In this case, the investigator, in consultation with sponsor, may choose to repeat the last well tolerated dose on Days 2 and 3, or titrate down as appropriate.
Days 4 and 5 (BID Dose Escalation): Based on each subject's individual PD responses to QD dose-escalation, an individualized dose of CLTX-305 will be chosen for BID dosing on Days 4 and 5. CLTX-305 will be administered once in the morning and once in the evening, within 30 minutes prior to breakfast and dinner. The dose selected should be based on each subject's response in cCa and/or PTH levels during the prior QD dosing (Days 1-3).
Days 1, 2 and 3 (QD Dose Escalations): Up to 8 subjects (minimum of 5) will undergo a single-dose, dose-escalation over the first 3 days of admission. Morning doses of 30, 90 and 180 mg will be administered on Days 1, 2 and 3, respectively, accompanied by frequent blood and urine sampling for 24-hours for PK/PD measures (For details of PK/PD assays and timepoints as shown in Table 4A-Table 4C, Table 5, and Table 6A-Table 6C CLTX-305 will be administered in the morning, with water, within 30 minutes prior to breakfast. If dose escalation is limited due to tolerability or hypercalcemia, the investigator, in consultation with sponsor, may choose to repeat the last well-tolerated dose on Days 2 and 3, or down-titrate, as appropriate (See below for dosing guidance algorithm).
In order to characterize both the pre-study calcemic status as well as changes associated with experimental interventions, the protocol will rely on frequent measurement of albumin-corrected blood calcium concentrations. Assays will be conducted according to specifications of the NIH Clinical Center Laboratory, Bethesda, Md. The main indicator of normal versus abnormal blood calcium levels will be based on the correction for serum or plasma albumin according to the formula corrected calcium (cCa)=measured total calcium (mg/dL)+0.8(4−albumin (g/dL)) OR measured total calcium (mmol/L)+0.2(4−albumin (g/dL)), recognizing that the total calcium reported in SI units (mmol/L) can be converted to conventional units (mg/dL) by multiplying by 4. Given that enrolled subjects are expected to have both normal and stable albumin levels, the measures of total calcium and cCa are likely to be similar throughout the time course of this study. […]

rabbits = details: fetuses; cited from earlier work
[5] = humans, most single doses or steady-state
[6] = not significant when body weight taken into account

For `Cc1cc(-c2ccccc2[C@@H](C)OC[C@H](O)CNC(C)(C)Cc2ccc(Cl)c(F)c2)ccc1C(=O)O` [CLTX-305, encaleret], the “acute safety and tolerability” value ([1]; 5-100 mg, non-ADH1 subjects) is listed as “acutely safe and well tolerated”, the “safety issues or signals” value ([1]; acute dosing up to 100 mg, chronic dosing up to 15 mg QD, over 1300 healthy males and post-menopausal women) is listed as “no specific safety issues or signals were seen” and the “subjects with blood calcium above the upper limit of the laboratory reference range” value ([1]; chronic once-daily dosing up to 15 mg, postmenopausal women, long-term trials) is listed as “up to 30%”. The “serious adverse events related to hyper- or hypocalcemia” value ([1]; osteoporosis program, postmenopausal women) was “No serious adverse events (SAEs)”, the “tolerability in humans during chronic treatment” value ([1]; up to and beyond 12 months) was “generally well tolerated” and the “main route of elimination” value [2] was “fecal excretion was the main route of elimination”. The “increase in AUC0-24 on co-administration with ketoconazole” value [3] was “approximately 2 ×”, the “increase in Cmax on co-administration with ketoconazole” value [3] was “approximately 1.67 ×” and the “dose proportionality of plasma concentrations” value ([4]; 5, 10, 15, 30, 50 and 100 mg, fasted state) was “Dose-proportional increases”. For the same compound, the “age-related or race differences in pharmacokinetics” value ([4]; US population vs. Japanese subjects) was “No significant age-related or race differences”, the “half-life of CLTX-305 at steady state” value ([4]; as stated in the study assessment section) was 10 to 14 h and the “food effect on plasma concentrations” value ([4]; dose range 5-100 mg) was “without significant food effect”. For the same compound, the tmax median [4, 5] was 1.5 h, the tmax range [4, 5] was 0.75 to 3 h and the “elimination half-life (t1/2) after single doses” value ([4]; humans, single doses) was “approximately 6.5 hours”. The “elimination half-life (t1/2) at steady state” value ([4]; humans, steady state (14 days)) was 11 to 14 h, the “excretion of unchanged CLTX-305 and metabolites into urine” value ([4]; humans, total of parent and metabolite) was < 5% and the “AUC higher in females” value [4, 6] was “approximately 37%”. The “Cmax higher in females” value [4, 6] was ~30%, the accumulation ([4]; once daily (QD) for two weeks, Japanese postmenopausal women) was “minimal accumulation” and the serious adverse events (subjects with ADH1; Period 1) was “no serious adverse events reported”. For the same compound, the “plasma exposure, dose relation (FIG. 8)” value (subjects with ADH1; Period 1, 30-180 mg) was “dose proportional increase in plasma exposure”, the “Number of AEs” value (subjects with ADH1; Period 1, N=6) was 9 n and the tolerability (subjects with ADH1; Period 1, escalating oral doses once or twice daily over 5 days) was “well-tolerated”. The “PTH, mean level over 24 hours by day 5” value (subjects with ADH1; Period 1, n=6, mean±SD, baseline 3.4±4.5) was 64.8 ± 49.6 pg/mL, the “Magnesium, 24-hour day 5 mean” value (subjects with ADH1; Period 1, n=6, baseline 1.6±0.4) was 2.0 ± 0.5 mg/dL and the “Phosphorus, 24-hour day 5 mean” value (subjects with ADH1; Period 1, n=6, baseline 4.5±0.7) was 2.9 ± 0.5 mg/dL. For the same compound, the “Albumin-corrected blood calcium (cCa), 24-hour mean on day 5” value (subjects with ADH1; Period 1, n=6, baseline 7.6±0.6) was 9.0 ± 0.5 mg/dL, the “Twenty-four hour urine calcium on day 5” value (subjects with ADH1; Period 1, n=6, screening 436±255 on conventional therapy) was 63 ± 127 mg/day and the “subjects in whom urinary calcium excretion became normal” value (subjects with ADH1; Period 1, of 6) was 3 subjects. For the same compound, the “subjects in whom urinary calcium excretion became undetectable” value (subjects with ADH1; Period 1, of 6) was 3 subjects and the “dose at which incidence of fetal skeletal anomalies (fusion of the sternebra) was increased” value (rabbits) was ≥ 30 mg/kg.
